US4320134A, “Inhibiton of thromboxane synthetase with 1-substituted imidazole compounds” (Ono Pharmaceutical Co., Ltd., priority 1978, dated 1982)
Counter-ions that a name gives are not always drawn.

Columns and labels:
[1] = molecular target: T1, thromboxane synthetase (Oryctolagus cuniculus, UniProt G1TAZ9); assay: Inhibitory potency of imidazole compounds on thromboxane synthetase (conversion of prostaglandin H2 to thromboxane B2 by rabbit platelet microsomes); assay type: biochemical; settings: 24° C., 1 minute
T1 construct: from tissue; host or cells: rabbit platelets (microsomes)
T1 sequence (G1TAZ9 1-530): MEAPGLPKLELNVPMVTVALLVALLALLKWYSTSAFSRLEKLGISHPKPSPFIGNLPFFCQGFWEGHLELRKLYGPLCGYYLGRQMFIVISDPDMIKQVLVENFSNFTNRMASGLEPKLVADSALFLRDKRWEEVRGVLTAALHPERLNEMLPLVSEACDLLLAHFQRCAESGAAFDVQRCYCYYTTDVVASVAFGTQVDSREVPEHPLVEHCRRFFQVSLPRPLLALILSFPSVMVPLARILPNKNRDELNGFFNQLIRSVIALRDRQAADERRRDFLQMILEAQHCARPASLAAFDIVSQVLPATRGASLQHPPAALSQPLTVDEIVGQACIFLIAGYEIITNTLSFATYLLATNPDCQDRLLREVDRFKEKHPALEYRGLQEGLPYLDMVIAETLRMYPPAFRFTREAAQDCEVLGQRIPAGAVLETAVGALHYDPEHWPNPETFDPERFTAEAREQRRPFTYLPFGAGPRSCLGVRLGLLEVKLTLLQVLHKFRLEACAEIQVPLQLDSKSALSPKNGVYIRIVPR
Description: (1-C^14)-Prostaglandin H2, obtained by the enzymatic biosynthesis with ram seminal vesicle microsomes and (1-C^14)-arachidonic acid, was incubated with rabbit platelet microsomes containing 0.025 μM and 0.5 μM of the test compound at 24° C. for 1 minute. The termination of the reaction and the extraction of a radioactive materials were carried out by the addition of a mixture of ethyl acetate/methanol/0.2 M citric acid (30:4:1 by volume). […] A spot of thromboxane B2 was counted by a packard Radiochromatogram Scanner.

[2] = test system: thromboxane synthetase; settings: in words; reported in the literature; cited from earlier work
[3] = Acute toxicity (LD50), intravenous, mice; settings: mouse, in vivo, dd-stain male mice, 7 weeks old, Behrens-Karber method, read-out: median lethal dose (LD50)
Description: The median lethal dose (LD50) of N-(7-carboxyheptyl)imidazole and N-(6-methoxycarbonylhexyl)imidazole (known compound) were determined in dd-stain male mice (7 weeks old) by intravenous administration. The LD50 values were calculated according to the Behrens-Karber method.

[4] = test system: thromboxane synthetase; assay: Inhibitory effect on thromboxane synthetase, general statements; assay type: biochemical; settings: in words

Structure (SMILES)	inhibition at 0.025 µM [1] [%]	inhibition at 0.5 µM [1] [%]	other results
O=C(O)CCCCCCCn1ccnc1 [1-(7-Carboxyheptyl)imidazole Hydrochloride]	31.2	89	–
Cn1ccnc1 [1-methylimidazole]	–	–	inhibitory action for thromboxane synthetase [2]: weak
COC(=O)CCCCCCn1ccnc1 [N-(6-methoxycarbonylhexyl)imidazole, reference compound]	5.5	25.7	LD50 [3]: 140 mg/kg; inhibitory effect on thromboxane synthetase compared with imidazole or 1-methylimidazole [4]: stronger inhibitory effect; inhibitory effect on thromboxane synthetase, suitability as medication [4]: not completely satisfactory as a practical medication
O=C(O)CCCCCCCn1ccnc1 [N-(7-carboxyheptyl)imidazole, 1-(7-Carboxyheptyl)imidazole]	–	–	LD50 [3]: 560 mg/kg
O=C(O)CCCCCCCCCCCn1ccnc1 [N-(11-carboxyundecyl)imidazole hydrochloride]	13.8	46.8	–
c1c[nH]cn1 [imidazole]	–	–	inhibitory action for thromboxane synthetase [2]: weak

More lines, main results first:

inhibition at 0.025 µM [1] [%]	inhibition at 0.5 µM [1] [%]	Structure (SMILES)	other results
10.1	76.1	O=C(O)CCCCCCn1ccnc1 [N-(6-carboxyhexyl)imidazole hydrochloride]	–
42.2	90.8	O=C(O)CCCCCCCCn1ccnc1 [N-(8-carboxyoctyl)imidazole hydrochloride]	–
20.2	72.5	O=C(O)CCCCCCCCCn1ccnc1 [N-(9-carboxynonyl)imidazole hydrochloride]	–
9.2	40.4	O=C(O)CCCCCCCCCCn1ccnc1 [N-(10-carboxydecyl)imidazole hydrochloride]	–
